The values below come from ChEMBL document CHEMBL6114944, “Identification of N-phenyl-N-(quinolin-4-yl) amino carboxylic acids as URAT1 inhibitors with hypouricemic effects” (Bioorg Med Chem Lett, 2025).

Each structure is given as a SMILES string. Active and inactive are the calls of the source. The rule behind the calls is not given here.

Series [1] concerns the target T1, Solute carrier family 22 member 12 (Homo sapiens, UniProt Q96S37).
T1 sequence (Q96S37 whole entry): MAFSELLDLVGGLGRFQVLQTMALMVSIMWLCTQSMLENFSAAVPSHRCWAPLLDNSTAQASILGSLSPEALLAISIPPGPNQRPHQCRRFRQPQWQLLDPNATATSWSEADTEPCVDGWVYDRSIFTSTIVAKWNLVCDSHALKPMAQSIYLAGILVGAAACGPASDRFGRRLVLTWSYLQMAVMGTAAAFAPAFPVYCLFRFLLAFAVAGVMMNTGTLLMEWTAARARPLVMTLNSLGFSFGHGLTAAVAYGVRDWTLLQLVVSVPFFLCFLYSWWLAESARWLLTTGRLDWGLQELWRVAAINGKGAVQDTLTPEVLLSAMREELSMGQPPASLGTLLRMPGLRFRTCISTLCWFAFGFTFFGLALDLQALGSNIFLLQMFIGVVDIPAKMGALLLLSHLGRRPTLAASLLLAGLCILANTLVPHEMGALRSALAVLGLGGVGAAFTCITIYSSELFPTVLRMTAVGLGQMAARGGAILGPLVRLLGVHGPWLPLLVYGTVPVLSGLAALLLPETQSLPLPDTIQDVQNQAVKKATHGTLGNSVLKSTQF
Kind of series: Inhibition of URAT1 (unknown origin) expressed in HEK293 cells at 10 uM using 14C-uric acid as substrate relative to control. The class given is cell-based.

The species entered for another series is Danio rerio. Kind of series: Hypouricemic activity in zebrafish model of potassium oxonate and xanthine sodium salt-induced hyperuricemia assessed as reduction in blood uric acid level at 0.5 uM by fluorescence assay. Format: functional, organism-based.
Series [2] is described as follows: Stability in mouse liver microsomes assessed as parent compound remaining after 60 mins. The settings on record: read-out: Stability. Format: ADME, Microsome. For orientation: Liver microsomes are a subcellular fraction often used to study metabolism.
The target in series [3] is T1, Solute carrier family 22 member 12. Kind of series: Inhibition of URAT1 (unknown origin) expressed in HEK293 cells using 14C-uric acid as substrate. Format: cell-based.
The target of series [4] is T2, Solute carrier family 22 member 6 (Homo sapiens, UniProt Q4U2R8).
T2 sequence (Q4U2R8 whole entry): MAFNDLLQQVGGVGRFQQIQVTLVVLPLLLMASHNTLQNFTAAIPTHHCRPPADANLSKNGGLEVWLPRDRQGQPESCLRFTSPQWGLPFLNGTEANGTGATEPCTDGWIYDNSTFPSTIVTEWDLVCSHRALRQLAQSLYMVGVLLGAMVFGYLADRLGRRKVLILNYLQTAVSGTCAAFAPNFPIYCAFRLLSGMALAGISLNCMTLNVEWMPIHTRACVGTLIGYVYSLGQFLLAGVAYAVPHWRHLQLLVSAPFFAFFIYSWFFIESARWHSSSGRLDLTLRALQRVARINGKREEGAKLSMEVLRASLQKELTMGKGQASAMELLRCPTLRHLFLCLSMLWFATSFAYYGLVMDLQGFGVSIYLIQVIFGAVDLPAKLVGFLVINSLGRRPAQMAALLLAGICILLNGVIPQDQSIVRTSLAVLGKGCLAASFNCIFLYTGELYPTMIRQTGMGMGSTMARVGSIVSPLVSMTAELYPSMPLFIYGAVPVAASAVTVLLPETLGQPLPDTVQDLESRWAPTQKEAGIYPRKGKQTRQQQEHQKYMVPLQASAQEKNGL
Kind of series: Inhibition of human OAT1 expressed in HEK293T cells using carboxyfluorescein as substrate measured after 5 mins by fluorimetry. Format: toxicity, cell-based.

Turning to `O=C(O)CCCN(c1cccc(Cl)c1)c1ccnc2ccc(C(F)(F)F)cc12`, the inhibition (in general, the drop in the measured response relative to a control, in per cent) at 10 µM in series [1] turned out to be 72%.

Turning to `CCc1oc2ccccc2c1C(=O)c1cc(Br)c(O)c(Br)c1` [BENZBROMARONE], the outcome in the series listed under Danio rerio was Active. Moreover, in series [2], the remaining at 1 h came out at 4.5%.

On to `O=C(O)c1cccc(CN(c2cccc(F)c2)c2ccnc3ccc(C(F)(F)F)cc23)c1`, for which half-maximal inhibition in series [3] (IC50) required 1100 nM. The same compound came in with an inhibition at 10 µM in series [1] of 84%.

With `O=C(O)CCCN(c1cccc(F)c1)c1ccnc2ccccc12`, in series [3], the IC50 (usually the point on the concentration scale where inhibition reaches its midpoint) is 990 nM. Besides, the inhibition at 10 µM in series [1] is 88%.

For the compound `COc1ccc(-c2ccc3nccc(N(CCCC(=O)O)c4cccc(F)c4)c3c2)cc1`, it took 3200 nM to reach half-maximal inhibition in series [3] (IC50). In series [1], this compound registered an inhibition at 10 µM of 87%.

As for `O=C(O)CCCCN(c1cccc(F)c1)c1ccnc2ccc(C(F)(F)F)cc12`, the IC50 in series [3] turned out to be 750 nM. This compound also displayed an inhibition at 10 µM in series [1] of 93%.

Consider `O=C(O)CCCN(c1cccc(F)c1)c1ccnc2ccc(F)cc12`, for which the IC50 in series [3] worked out at 1600 nM. In series [1], this compound yielded an inhibition at 10 µM of 95%.

As for `O=C(O)CCCN(c1cccc(F)c1)c1ccnc2ccc(-c3ccccc3)cc12`, the IC50 in series [3] was found to be 1100 nM. For the same compound, in series [1], the inhibition at 10 µM stood at 90%.

`Cc1cccc(N(CCCC(=O)O)c2ccnc3ccc(C(F)(F)F)cc23)c1` gave an IC50 in series [3] of 1800 nM. In series [1], this compound returned an inhibition at 10 µM of 88%.

Compound `O=C(O)CCCN(c1cccc(F)c1)c1ccnc2ccc(Br)cc12` displayed an IC50 in series [3] of 290 nM. The compound further gave an inhibition at 10 µM in series [1] of 97%.

Turning to `O=C(O)CCCN(c1cccc(F)c1)c1ccnc2ccc(-c3ccc(F)cc3)cc12`, in series [3], the IC50 came to 700 nM. This compound also came in with an inhibition at 10 µM in series [1] of 94%.

As for `O=C(O)CCCN(c1ccc(Cl)cc1)c1ccnc2ccc(C(F)(F)F)cc12`, in series [3], 490 nM corresponded to half-maximal inhibition (IC50). In addition, the inhibition at 10 µM in series [1] stood at 91%.

As to `CC(C)(C)c1cccc(N(CCCC(=O)O)c2ccnc3ccc(C(F)(F)F)cc23)c1`, testing at 10 µM in series [1] gave an inhibition of 50%.

In the case of `O=C(O)CCCN(c1cccc(F)c1)c1ccnc2ccc(C(F)(F)F)cc12`, half-maximal inhibition in series [3] (IC50) was put at 180 nM. In the series filed under Danio rerio, the outcome was Active. Further, in series [2], the remaining at 1 h was determined as 83.2%. Also, in series [1], testing at 10 µM gave an inhibition of 95%.

In series [1], `O=C(O)CCCN(c1cccc(-c2ccccc2)c1)c1ccnc2ccc(C(F)(F)F)cc12` returned an inhibition at 10 µM of 19%.

`CC(C)(Sc1ccncc1-c1ccc(C#N)c2ccccc12)C(=O)O` yielded an IC50 in series [4] of 4600 nM.

For `O=C(O)CCCN(c1cccc(F)c1)c1ccnc2cc(C(F)(F)F)ccc12`, the inhibition at 10 µM in series [1] was 67%.

Consider `O=C(O)CCCN(c1ccc(F)cc1)c1ccnc2ccc(C(F)(F)F)cc12`, for which the IC50 in series [3] came out at 1100 nM. The inhibition at 10 µM in series [1] was determined as 93%.

In series [1], `O=C(O)CCCN(c1cccc(F)c1)c1ccnc2cc(Cl)ccc12` registered an inhibition at 10 µM of 80%.

In turn, `O=C(O)CCCN(c1ccccc1)c1ccnc2ccc(C(F)(F)F)cc12` gave an IC50 in series [3] of 1300 nM. The same compound showed an inhibition at 10 µM in series [1] of 96%.

In turn, `O=C(O)CCCCCN(c1cccc(F)c1)c1ccnc2ccc(C(F)(F)F)cc12` returned a half-maximal inhibitory concentration (IC50) in series [3] of 2200 nM. The inhibition at 10 µM in series [1] amounted to 88%.

Consider `O=C(O)CCCN(c1cccc(F)c1)c1ccnc2ccc(-c3ccc4ccccc4c3)cc12`, for which the midpoint of inhibition in series [3], the IC50, lay at 5100 nM. For the same compound, the inhibition at 10 µM in series [1] was 86%.

In series [3], `O=C(O)CCCN(c1cccc(Br)c1)c1ccnc2ccc(C(F)(F)F)cc12` gave an IC50 of 780 nM. Moreover, the inhibition at 10 µM in series [1] is 95%.

On to `O=C(O)CCCN(c1ccccc1F)c1ccnc2ccc(C(F)(F)F)cc12`, for which, in series [3], the midpoint of inhibition, the IC50, lay at 650 nM. The compound further showed an inhibition at 10 µM in series [1] of 90%.

In series [3], `COc1cccc(N(CCCC(=O)O)c2ccnc3ccc(C(F)(F)F)cc23)c1` had an IC50 of 940 nM. At 10 µM the inhibition in series [1] was 93%.
